Source: US4117121A, “Method of increasing bile flow and decreasing lipid levels” (Hoffmann-La Roche Inc., priority 1977, dated 1978)

Assays:
bile flow [1] = assay: Comparative effect on bile flow (Example 2); type: in vivo, female rats; settings: 100 mg intragastrically, vs average bile of two hours preceding treatment
Description: Female rats, weighing approximately 250 g, were fasted overnight prior to surgery; water was allowed ad libitum. The surgical procedures involving cannulation of the upper part of the common bile duct were carried out under Penthrane anesthesia. A catheter placed in the avascular part of the stomach was used for intragastric administration of emulsion; another catheter was placed in the duodenum. After surgery the rats were kept in restraining cages. Intraduodenal infusion of bile (collected previously from donors) was then started at the rate of 0.9 ml/hr. The infusion pressure was kept constant by means of a pump. Hydration was maintained by allowing the animals to drink saline ad libitum.
All rats were allowed~20 hours to recover from surgery. During this post-surgical period bile was collected in pooled samples of 16-18 hours. Having achieved steady hourly flow, the two samples obtained prior to the actual experiment were collected individually and considered as a control standard for each rat.
Bile samples were collected hourly, over a 24-hour period. The volume was measured to the nearest 0.1 ml.
The values in Table III were expressed for the purpose of the analysis, as a percent change from average bile collected in the two hours immediately preceding treatment.

triglyceride absorption = assay: Inhibition of absorption of dietary triglyceride after oral corn oil load; type: in vivo, rats
Description: The ability of compound A to inhibit the absorption of dietary triglyceride in rats is determined by analyzing the rise in serum triglycerides after an oral load of corn oil. To 24 hours fasted rats (6 per group), compound A was administered orally at 1.1 mmoles/kg 15 minutes before a single oral dose of corn oil ([…]). Blood samples (0.4 ml) were collected from the rat tail 0, 2, 4, 6, 8 and 24 hours after compound administration. Each rat is its own control. Plasma samples were analyzed for triglyceride content by the procedure set forth in Kessler and H. Lederer, Tehnicon Symposium 1965 Automation in Analytical Chemistry Ed. L. Skeggs, published Mediad Inc. N.Y. (1966)pp341. The data in Table V is expressed as mg% change in plasma triglyceride levels compared to zero time control values at each time interval. This change in plasma triglycerides was determined by calculating the difference between the triglyceride level at each time point compared to zero time control level.
The procedure of Example 4 was followed except groups of 4 were utilized. Compound B was administered.

bile flow [2] = assay: Stimulation of bile flow (Example 1); type: in vivo, female albino rats (Charles River); settings: 100 mg orally, over the Na-TC control
From the text: (§1) In these studies female albino rats (Charles River), weighing 300 ± 10 g were kept on a Purina chow diet ad libitum until the time of operation. […] This preparation enabled the production of lymph at a constant rate, the infusion of a bile salt, and the simultaneous collection of bile.
(§2) All animals received, after operation, a continuous duo denal infusion of sodium taurocholate (Na-TC) in 0.85% NaCl. One day after operation, the rats were given, by stomach intubation, an emulsion containing about 4% triolein, 20 μC of 4-^14 C-cholesterol (Specific Activity 61.7 mC/mM, 159 μC/mg), 2 mg of cholesterol, in addition to protein, carbohydrate, and saline. Both the Na-TC and the cholesterol carrier employed gave a single spot on either thin layer or glass fiber paper chromatograph so no further purification was attempted. The commercial glyceryl trioleate contained a large percentage of di- and monoolein. Triolein was, therefore, purified by passage through a silicic acid column; the final product gave a single spot on either glass fiber paper or thin layer chromatography.
(§3) To 4 ml of this emulsion was added 100 mg of either Na-TC (control group) or compounds A through D. This mixture was given orally to the animals.
(§4) The sampling of thoracic duct lymph and of bile was divided into two collecting periods, 0-8 and 9-24 h after emulsion administration.
In this table the results are expressed as the % increase in bile flow over the control.

[3] = system: intestinal absorbtion of CHOLESTEROL; assay: Intestinal absorption of cholesterol: appearance of 4-14C-cholesterol in thoracic duct lymph; type: in vivo, female albino rats (Charles River); settings: 100 mg orally, vs Na-TC control, 14C-cholesterol in lymph; for % decrease of cholesterol, 0-8 hours: 0-8 hours after emulsion; for % decrease of cholesterol, 9-24 hours: 9-24 hours after emulsion
From the text: as §1, §2, §3, §4
Lymph specimens were lyophilized and the lipids in the residue were extracted with ethanol-isopropyl ether, 2:1 parts by volume, by procedure described in Gallo-Torres, et al; Biophys. Acta, 176 605-615 (1969). An aliquot of the lipid extract was placed on a small piece of glass fiber paper and counted. Another aliquot was used for the separation of cholesterol and its esters by glass fiber paper chromatography.
The effect of compounds A through D derivatives on the appearance of total ^14 C-cholesterol in the thoracic duct lymph of rats is summarized in Table I. Of the dose administered to the control animals, 5 × 10^5 dpm were recovered in the first 8 h and 3.4 × 10^6 dpm in the period of 9-24 h following administration of the emulsion. […] The tolerance of cholesterol in Table I is the % decrease in the 4-^14 C-cholesterol over the control appearing in the lymph during the specified period.

rat pancreatic lipase = target: T1, rat pancreatic lipase (Rattus norvegicus, UniProt P27657); assay: Inhibition of rat pancreatic lipase in vitro; type: biochemical; settings: 14C-triolein emulsion, pH 8.6, 20 min at 37° C.
T1 sequence (P27657 17-465): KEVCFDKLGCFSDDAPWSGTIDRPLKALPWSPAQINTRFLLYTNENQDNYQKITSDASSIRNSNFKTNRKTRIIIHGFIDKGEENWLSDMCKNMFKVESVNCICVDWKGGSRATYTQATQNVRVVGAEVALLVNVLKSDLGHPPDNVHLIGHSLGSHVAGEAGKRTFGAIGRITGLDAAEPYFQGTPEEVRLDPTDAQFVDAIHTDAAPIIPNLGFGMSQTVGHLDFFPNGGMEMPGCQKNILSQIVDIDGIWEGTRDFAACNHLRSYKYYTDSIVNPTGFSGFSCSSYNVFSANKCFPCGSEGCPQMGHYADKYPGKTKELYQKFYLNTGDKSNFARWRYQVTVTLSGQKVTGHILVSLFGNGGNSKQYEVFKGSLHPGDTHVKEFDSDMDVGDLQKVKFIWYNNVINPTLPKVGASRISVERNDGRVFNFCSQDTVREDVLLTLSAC
Description: Dietary long-chain triglycerides must be hydrolyzed by pancreatic lipase in the duodenum before absorption can occur. […] The capacity of compounds B and C to inhibit rat pancreatic lipase in vitro was investigated. The ability of compounds to inhibit rat pancreatic lipase is determined by analyzing the nmoles of free fatty acid [oleic acid] released from [^14 C]-triolein. Compounds of B and C are added to an emulsion consisting of: 200,000 dpm ^14 C-triolein, 7.5 mg triolein, 0.75 mg sodium taurocholate, 15 mg bovine serum albumin and 0.9 ml 0.2 M tris-HCl - 0.15 M NaCl, pH 8.6, per assay. Water and/or pancreatic lipase is added to make an assay volume of 1.0 ml. The emulsion is incubated for 20 min at 37° C. in a shaking water bath. The reaction is stopped by the addition of isopropanol; H2 SO4 (40:1). The lipids are extracted twice with 3 ml volumes of hexane. The liberated fatty acids are extracted with 2 ml of 0.1 N KOH in 50% methanol. A 1 ml aliquot of the KOH layer is placed in a scintillation vial with 10 ml of 2,5-bis-2- (5-tertiarybutyl benzoxazolyl)thiophene. The radioactivity is determined in a scintillation counter. Data are expressed as nmoles free fatty acid [oleic acid] released.

[4] = system: cholesterol-7α-hydroxylase; assay: Effect on activity of cholesterol-7α-hydroxylase; settings: in words

| Structure (SMILES) | % increase in Bile Flow, 0-12 hours (bile flow [1]) | % increase in Bile Flow, 13-24 hours (bile flow [1]) | % increase in Bile Flow, overall 24 hour period (bile flow [1]) | % increase of Bile Flow, 0-8 hours (bile flow [2]) | % increase of Bile Flow, 9-24 hours (bile flow [2]) | % decrease of cholesterol, 0-8 hours [3] [%] | % decrease of cholesterol, 9-24 hours [3] [%] | further results |
| --- | --- | --- | --- | --- | --- | --- | --- | --- |
| C[C@H](CCC(=O)O)[C@H]1CC[C@H]2[C@@H]3[C@H](O)C[C@@H]4C[C@H](O)CC[C@]4(C)[C@H]3CC[C@]12C [CDC, chenodeoxycholic acid] | +504% | +9% | +513% | – | – | – | – | – |
| C[C@]12CC[C@@H](O)C[C@H]1CC[C@@H]1[C@@H]2C[C@H](O)[C@]2(C)[C@@H](C(=O)O)CC[C@@H]12 [Compound A, 3α, 12α-dihydroxy-etiocholane-17β-carboxylicacid] | +286% | +79% | +365% | +18% | -3% | 0 | 79 | Change in Plasma Triglyceride Levels, 4 hr (triglyceride absorption; 4 hr, 1.1 mmoles/kg orally, 15 minutes before corn oil, 6 per group, vs zero time): 50 ± 13 mg%; Change in Plasma Triglyceride Levels, 6 hr (triglyceride absorption; 6 hr, 1.1 mmoles/kg orally, 15 minutes before corn oil, 6 per group, vs zero time): 113 ± 34 mg%; Change in Plasma Triglyceride Levels, 8 hr (triglyceride absorption; 8 hr, 1.1 mmoles/kg orally, 15 minutes before corn oil, 6 per group, vs zero time, *p<0.05): 164 ± 40 mg%; Change in Plasma Triglyceride Levels, 24 hr (triglyceride absorption; 24 hr, 1.1 mmoles/kg orally, 15 minutes before corn oil, 6 per group, vs zero time): 83 ± 11 mg%; Change in Plasma Triglyceride Levels, 2 hr (triglyceride absorption; po, 1100 umol/kg): 37 ± 9 mg% |
| C[C@H](C(=O)O)[C@H]1CC[C@H]2[C@@H]3CC[C@@H]4C[C@H](O)CC[C@]4(C)[C@H]3C[C@H](O)[C@]12C [Compound B, 3α, 12α-dihydroxy-5β-23,24-bisnorcholanic acid] | +517% | +113% | +630% | +38% | +47% | 0 | 0 | Change in Plasma Triglycerides, 2 hr (triglyceride absorption; Example 5, 2 hr, procedure of Example 4, groups of 4): -3 mg%; Change in Plasma Triglycerides, 4 hr (triglyceride absorption; Example 5, 4 hr, procedure of Example 4, groups of 4): 7 mg%; Change in Plasma Triglycerides, 6 hr (triglyceride absorption; Example 5, 6 hr, procedure of Example 4, groups of 4): 15 mg%; Change in Plasma Triglycerides, 8 hr (triglyceride absorption; Example 5, 8 hr, procedure of Example 4, groups of 4): 54 mg%; Change in Plasma Triglycerides, 24 hr (triglyceride absorption; Example 5, 24 hr, procedure of Example 4, groups of 4): 30 mg%; Ki (rat pancreatic lipase): 14 mM |
| C[C@H](CC(=O)O)[C@H]1CC[C@H]2[C@@H]3CC[C@@H]4C[C@H](O)CC[C@]4(C)[C@H]3C[C@H](O)[C@]12C [Compound C, 3α, 12α-dihydroxy-5-β-norcholanic acid] | – | – | – | +4% | +30% | 40 | 53 | Ki (rat pancreatic lipase): 1 mM |
| C[C@H](CCO)[C@H]1CC[C@H]2[C@@H]3CC[C@@H]4C[C@H](O)CC[C@]4(C)[C@H]3C[C@H](O)[C@]12C [Compound D, 3α, 12α, 23-trihydroxy-5β-24-norcholane] | – | – | – | +22% | +14% | 84 | 44 | – |
| C[C@H](CCC(=O)O)[C@H]1CC[C@H]2[C@@H]3[C@H](O)C[C@@H]4C[C@H](O)CC[C@]4(C)[C@H]3C[C@H](O)[C@]12C [cholic acid, 3α, 7α, 12α-trihydroxy-5β-cholanic acid] | +161% | – | +38% | – | – | – | – | effect on the activity of cholesterol-7α-hydroxylase [4]: adverse effect |
| C[C@H](CCC(=O)O)[C@H]1CC[C@H]2[C@@H]3CC[C@@H]4C[C@H](O)CC[C@]4(C)[C@H]3C[C@H](O)[C@]12C [deoxycholic acid, 3α, 12α-dihydroxy-5β-cholanic acid] | +335% | – | +219% | – | – | – | – | effect on the activity of cholesterol-7α-hydroxylase [4]: adverse effect |
